Calls of active or inactive are those of the source. The rule behind the calls is not given here.
Tests used:
MDA-MB-231 = assay: Cytotoxicity against human MDA-MB-231 cells after 72 hrs by MTT assay; format: functional, cell-based; conditions: MDA-MB-231, 72 h
K562 = assay: Cytotoxicity against human K562 cells after 72 hrs by MTT assay; format: functional, cell-based; conditions: K562, 72 h
[1] = Cytotoxicity against human Bel7404 cells after 72 hrs by MTT assay; format: functional, cell-based; conditions: BEL-7404, 72 h
[2] = Cytotoxicity against human HL60 cells after 72 hrs by MTT assay; format: functional, cell-based; conditions: HL-60, 72 h
BEL-7404 tumor cell line [3] = assay: Induction of apoptosis in human Bel7404 cells assessed as increase in procaspase 9 protein level at 60 uM at 48 hrs by Western blot analysis relative to control; format: functional
BEL-7404 tumor cell line [4] = assay: Induction of apoptosis in human Bel7404 cells assessed as increase in procaspase 9 protein level at 60 uM at 36 hrs by Western blot analysis relative to control; format: functional
BEL-7404 tumor cell line [5] = assay: Induction of apoptosis in human Bel7404 cells assessed as increase in procaspase 9 protein level at 60 uM at 24 hrs by Western blot analysis relative to control; format: functional
BEL-7404 tumor cell line [6] = assay: Induction of apoptosis in human Bel7404 cells assessed as reduction in Bcl2 protein expression at 60 uM at 24 hrs by Western blot analysis relative to control; format: functional
BEL-7404 tumor cell line [7] = assay: Induction of apoptosis in human Bel7404 cells assessed as increase in cytochrome c protein level at 60 uM at 12 hrs by Western blot analysis relative to control; format: functional
BEL-7404 tumor cell line [8] = assay: Induction of apoptosis in human Bel7404 cells assessed as decrease in procaspase 3 protein level at 60 uM at 12 hrs by Western blot analysis relative to control; format: functional
[9] = Cell cycle arrest in human Bel7404 cells assessed as accumulation at G2/M phase at 40 uM after 24 hrs by PI-based flow cytometry ( Rvb = 0.11 % ); format: functional; conditions: BEL-7404
BEL-7404 tumor cell line [10] = assay: Induction of apoptosis in human Bel7404 cells assessed as increase in Bax protein expression at 60 uM at 24 hrs by Western blot analysis relative to control; format: functional
[11] = Cell cycle arrest in human Bel7404 cells assessed as accumulation at G0/G1 phase at 20 uM after 24 hrs by PI-based flow cytometry ( Rvb = 56.50 % ); format: functional; conditions: BEL-7404
BEL-7404 tumor cell line [12] = assay: Induction of apoptosis in human Bel7404 cells assessed as reduction in Bcl2 protein expression at 60 uM at 12 hrs by Western blot analysis relative to control; format: functional
[13] = Cell cycle arrest in human Bel7404 cells assessed as decrease in S phase after 24 hrs by PI-based flow cytometry; format: functional; conditions: BEL-7404
BEL-7404 tumor cell line [14] = assay: Induction of apoptosis in human Bel7404 cells assessed as increase in Bax protein expression at 60 uM at 48 hrs by Western blot analysis relative to control; format: functional
BEL-7404 tumor cell line [15] = assay: Induction of apoptosis in human Bel7404 cells assessed as reduction in Bcl2 protein expression at 60 uM at 48 hrs by Western blot analysis relative to control; format: functional
BEL-7404 tumor cell line [16] = assay: Induction of apoptosis in human Bel7404 cells assessed as decrease in procaspase 3 protein level at 60 uM at 36 hrs by Western blot analysis relative to control; format: functional
BEL-7404 tumor cell line [17] = assay: Induction of apoptosis in human Bel7404 cells assessed as increase in cytochrome c protein level at 60 uM at 48 hrs by Western blot analysis relative to control; format: functional
BEL-7404 tumor cell line [18] = assay: Induction of apoptosis in human Bel7404 cells assessed as decrease in procaspase 3 protein level at 60 uM at 48 hrs by Western blot analysis relative to control; format: functional
BEL-7404 tumor cell line [19] = assay: Induction of apoptosis in human Bel7404 cells assessed as increase in cytochrome c protein level at 60 uM at 24 hrs by Western blot analysis relative to control; format: functional
BEL-7404 tumor cell line [20] = assay: Induction of apoptosis in human Bel7404 cells assessed as increase in Bax protein expression at 60 uM at 12 hrs by Western blot analysis relative to control; format: functional
BEL-7404 tumor cell line [21] = assay: Induction of apoptosis in human Bel7404 cells assessed as nuclear shrinking at 60 uM after 48 hrs using Hoechst staining by fluorescence microscopy; format: functional, cell-based
BEL-7404 tumor cell line [22] = assay: Induction of apoptosis in human Bel7404 cells assessed as increase in procaspase 9 protein level at 60 uM at 12 hrs by Western blot analysis relative to control; format: functional
BEL-7404 tumor cell line [23] = assay: Induction of apoptosis in human Bel7404 cells assessed as decrease in procaspase 3 protein level at 60 uM at 24 hrs by Western blot analysis relative to control; format: functional
[24] = Cytotoxicity against human L02 cells at 20 to 160 uM after 72 hrs by MTT assay; format: cell-based; conditions: l02, 72 h
[25] = Cell cycle arrest in human Bel7404 cells assessed as accumulation at G2/M phase at 60 uM after 24 hrs by PI-based flow cytometry ( Rvb = 0.11 % ); format: functional; conditions: BEL-7404
[26] = Cell cycle arrest in human Bel7404 cells assessed as accumulation at S phase at 20 uM after 24 hrs by PI-based flow cytometry ( Rvb = 43.38 % ); format: functional; conditions: BEL-7404
BEL-7404 tumor cell line [27] = assay: Induction of apoptosis in human Bel7404 cells assessed as reduction in Bcl2 protein expression at 60 uM at 36 hrs by Western blot analysis relative to control; format: functional
BEL-7404 tumor cell line [28] = assay: Induction of apoptosis in human Bel7404 cells assessed as membrane blebbing at 60 uM after 48 hrs using Hoechst staining by fluorescence microscopy; format: functional, cell-based
[29] = Cell cycle arrest in human Bel7404 cells assessed as decrease in G2/M phase after 24 hrs by PI-based flow cytometry; format: functional; conditions: BEL-7404
[30] = Cell cycle arrest in human Bel7404 cells assessed as accumulation at G0/G1 phase at 60 uM after 24 hrs by PI-based flow cytometry ( Rvb = 56.50 % ); format: functional; conditions: BEL-7404
[31] = Cell cycle arrest in human Bel7404 cells assessed as accumulation at G2/M phase at 20 uM after 24 hrs by PI-based flow cytometry ( Rvb = 0.11 % ); format: functional; conditions: BEL-7404
BEL-7404 tumor cell line [32] = assay: Induction of apoptosis in human Bel7404 cells assessed as apoptotic bodies at 60 uM after 48 hrs using Hoechst staining by fluorescence microscopy; format: functional, cell-based
BEL-7404 tumor cell line [33] = assay: Induction of apoptosis in human Bel7404 cells assessed as increase in Bax protein expression at 60 uM at 36 hrs by Western blot analysis relative to control; format: functional
[34] = Cell cycle arrest in human Bel7404 cells assessed as accumulation at S phase at 60 uM after 24 hrs by PI-based flow cytometry ( Rvb = 43.38 % ); format: functional; conditions: BEL-7404
[35] = Cell cycle arrest in human Bel7404 cells assessed as accumulation at S phase at 40 uM after 24 hrs by PI-based flow cytometry ( Rvb = 43.38 % ); format: functional; conditions: BEL-7404
BEL-7404 tumor cell line [36] = assay: Induction of apoptosis in human Bel7404 cells assessed as increase in cytochrome c protein level at 60 uM at 36 hrs by Western blot analysis relative to control; format: functional
[37] = Cell cycle arrest in human Bel7404 cells assessed as accumulation at G0/G1 phase at 40 uM after 24 hrs by PI-based flow cytometry ( Rvb = 56.50 % ); format: functional; conditions: BEL-7404
BEL-7404 tumor cell line [38] = assay: Induction of apoptosis in human Bel7404 cells assessed as nuclear condensation at 60 uM after 48 hrs using Hoechst staining by fluorescence microscopy; format: functional, cell-based
[39] = Cell cycle arrest in human Bel7404 cells assessed as increase in G0/G1 phase after 24 hrs by PI-based flow cytometry; format: functional; conditions: BEL-7404

CC1(C)CC[C@]2(C(=O)O)CC[C@]3(C)C(=CC[C@@H]4[C@@]5(C)Cc6nonc6C(C)(C)[C@@H]5CC[C@]43C)[C@@H]2C1
IC50 (MDA-MB-231): 53.6 µM
IC50 (K562): 49.7 µM
IC50 [1]: 30.9 µM
IC50 [2]: 46.1 µM

CC1(C)CC[C@]2(C(=O)O)CC[C@]3(C)C(=CC[C@@H]4[C@@]5(C)CC[C@H](O)C(C)(C)[C@@H]5CC[C@]43C)[C@@H]2C1 [OLEANOLIC_ACID]
IC50 (MDA-MB-231): 67.9 µM
IC50 (K562): 58.1 µM
IC50 [1]: 57.9 µM
IC50 [2]: 54.6 µM

CC1(C)CC[C@]2(C(=O)O)CC[C@]3(C)C(=CC[C@@H]4[C@@]5(C)Cc6cnoc6C(C)(C)[C@@H]5CC[C@]43C)[C@@H]2C1
IC50 (MDA-MB-231): 53.7 µM
IC50 (K562): 11.4 µM
IC50 [1]: 36 µM
IC50 [2]: 42.1 µM

CC(=O)n1nc2c(n1)C(C)(C)[C@@H]1CC[C@]3(C)[C@H](CC=C4[C@@H]5CC(C)(C)CC[C@]5(C(=O)O)CC[C@]43C)[C@@]1(C)C2
IC50 (MDA-MB-231): 61.7 µM
IC50 (K562): 67.6 µM
IC50 [1]: 45.1 µM
IC50 [2]: 76.6 µM

CC1(C)CC[C@]2(C(=O)O)CC[C@]3(C)C(=CC[C@@H]4[C@@]5(C)Cc6cnc(N)nc6C(C)(C)[C@@H]5CC[C@]43C)[C@@H]2C1
IC50 (MDA-MB-231): 44.8 µM
fold change (FC) (BEL-7404 tumor cell line [3]): 0.1
fold change (FC) (BEL-7404 tumor cell line [4]): 0.2
fold change (FC) (BEL-7404 tumor cell line [5]): 0.6
fold change (FC) (BEL-7404 tumor cell line [6]): 0.5
fold change (FC) (BEL-7404 tumor cell line [7]): 1.3
IC50 (K562): 39.3 µM
fold change (FC) (BEL-7404 tumor cell line [8]): 0.8
Activity [9]: 0%
IC50 [1]: 35.1 µM
fold change (FC) (BEL-7404 tumor cell line [10]): 1.5
Activity [11]: 58.4%
fold change (FC) (BEL-7404 tumor cell line [12]): 1
Activity [13]: Dose-dependent effect
fold change (FC) (BEL-7404 tumor cell line [14]): 7.7
fold change (FC) (BEL-7404 tumor cell line [15]): 0.4
fold change (FC) (BEL-7404 tumor cell line [16]): 0.4
fold change (FC) (BEL-7404 tumor cell line [17]): 7
fold change (FC) (BEL-7404 tumor cell line [18]): 0.1
fold change (FC) (BEL-7404 tumor cell line [19]): 2.6
fold change (FC) (BEL-7404 tumor cell line [20]): 1.5
Activity (BEL-7404 tumor cell line [21]): Active
IC50 [2]: 42.6 µM
fold change (FC) (BEL-7404 tumor cell line [22]): 0.7
fold change (FC) (BEL-7404 tumor cell line [23]): 0.6
Activity [24]: Non-toxic
Activity [25]: 0%
Activity [26]: 41.6%
fold change (FC) (BEL-7404 tumor cell line [27]): 0.4
Activity (BEL-7404 tumor cell line [28]): Active
Activity [29]: Dose-dependent effect
Activity [30]: 73%
Activity [31]: 0%
Activity (BEL-7404 tumor cell line [32]): Active
fold change (FC) (BEL-7404 tumor cell line [33]): 7.6
Activity [34]: 27%
Activity [35]: 37.1%
fold change (FC) (BEL-7404 tumor cell line [36]): 2.7
Activity [37]: 62.9%
Activity (BEL-7404 tumor cell line [38]): Active
Activity [39]: Dose-dependent effect
